Publication PMC6057649, “Development of NanoLuc-PEST expressing Leishmania mexicana as a new drug discovery tool for axenic- and intramacrophage-based assays” (PLoS Neglected Tropical Diseases, 2018)
pEC50: −log10 of the molar value.

Test system: NanoLuc-PEST expressing L. mexicana axenic amastigotes
Experiment: microbe, parasite or virus in culture
Assay type: cell-based
Settings: for Relative Bioluminescence (%) / viability at 2 µM / viability at 10 µM: 72 hours, relative to DMSO only control, n = 4; for pEC50: hit compounds from the axenic amastigote screen, S3 Table, read-out: EC50, Axenic Amastigotes; for viability at 2 µM / viability at 10 µM: Leishmania mexicana, read-out: Relative Bioluminescence (%)

Row | Compound | Relative Bioluminescence (%) (2 µM compound) | Relative Bioluminescence (%) (10 µM compound) | pEC50 | viability at 2 µM (2 µM compound) | viability at 10 µM (10 µM compound)
1 | O=C(NC1CC1)c1ccc(N2CCC(Cc3ccccc3)CC2)nc1 [MMV024397] | 92.24% | 86.39% | – | – | –
2 | COc1cc(C2=NCCN2)ccc1-n1cc(-c2cccc(C3=NCCN3)c2)nn1 [MMV688474] | 77.71% | 76.43% | – | – | –
3 | Cc1ccc2cc(C3NC(=O)c4ccccc4N3)c(Cl)nc2c1 (stereo not shown) [MMV019807] | 69.92% | 111.93% | – | – | –
4 | Cc1cc(C(=O)Nc2ccc(-c3ccccc3)cc2)no1 [MMV020152] | 89.71% | 108.81% | – | – | –
5 | Cc1ccc(S(=O)(=O)Nc2ccc(CN3CCN(C(=O)c4cccc(C#N)c4)CC3)cc2)cc1 [MMV689028] | 54.14% | 72.62% | – | – | –
6 | CCOc1ccccc1NC(C)C(=O)Nc1cc(C(F)(F)F)ccc1N1CCOCC1 (stereo not shown) [MMV407834] | 70.36% | 63.07% | – | – | –
7 | COc1cc2ncnc(NC3CCN(Cc4ccccc4)CC3)c2cc1OC [MMV006741] | 83.56% | 113.49% | – | – | –
8 | CC(C)(C)CN1C(=O)C(c2ccccc2)(c2ccccc2)N=C1N [MMV026550] | 91.50% | 87.66% | – | – | –
9 | Cc1cc(C)cc(COc2ccc3c(C)c(CCC(=O)O)c(=O)oc3c2C)c1 [MMV676476] | 1.36% | -0.27% | 6.24 | – | –
10 | Nc1ncnc2n[nH]c(Cc3cccc4ccccc34)c12 [MMV688469] | 103.98% | 53.28% | – | – | –
11 | COc1cc(C(F)(F)F)nc2ccc(C)c(N)c12 [MMV047015] | 86.47% | 82.90% | – | – | –
12 | CC(C)(C)c1cnc(NC(=O)c2ccccc2O)s1 [MMV495543] | 70.90% | 27.02% | – | – | –
13 | Cc1cc(Nc2ccncc2)n2nc(C)c(-c3ccccc3Cl)c2n1 [MMV016136] | 83.56% | 91.85% | – | – | –
14 | CO/C=C(/C(=O)OC)c1ccccc1Oc1cc(Oc2ccccc2C#N)ncn1 [MMV021057, Azoxystrobin] | 62.63% | 55.66% | – | – | –
15 | CN1CCN(CCCOc2ncc(Nc3ncc(-c4ccc(C(F)(F)F)c(F)c4)nc3C(N)=O)cn2)CC1 [MMV687812] | 66.08% | 77.79% | – | – | –
16 | O=C(NCc1cc(Cl)cc(Cl)c1)c1c(C(F)(F)F)nc2ccccn12 [MMV687699] | 81.42% | 62.05% | – | – | –
17 | O=C(Nc1cnc2ccccc2c1)c1cccc(-n2cnnn2)c1 [MMV084864] | 74.64% | 55.81% | – | – | –
18 | COc1ccc(-c2cncc3ccc(C(=O)NCCCn4ccnc4)nc23)cc1 [MMV020670] | 96.09% | 97.66% | – | – | –
19 | CN1CCC(NCc2cccc(-c3ccc(S(=O)(=O)NCc4ccccc4)cc3)c2)CC1 [MMV022029] | 99.81% | 101.70% | – | – | –
20 | NS(=O)(=O)c1cccc(-c2ccc3ncc(N4CCOCC4)nc3c2)c1 [MMV023860] | 79.77% | 74.37% | – | – | –

Row | Compound | Relative Bioluminescence (%) (2 µM compound) | Relative Bioluminescence (%) (10 µM compound) | pEC50 | viability at 2 µM (2 µM compound) | viability at 10 µM (10 µM compound)
21 | Cc1nc(-c2cccc(NCc3ccccc3)c2)[nH]c1C [MMV023227] | 80.48% | 64.23% | – | – | –
22 | FC(F)(F)c1nnc2ccc(Cl)nn12 [MMV069458] | 115.05% | 112.41% | – | – | –
23 | COc1ccc(C(=N)N)cc1-c1cn(-c2ccc(C(=N)N)cc2)nn1 [MMV675998] | 92.81% | 65.21% | – | – | –
24 | Nc1ncnc2c1c(-c1cnc3ccccc3c1)nn2CC1CCNCC1 [MMV688411] | 105.51% | 65.85% | – | – | –
25 | Cc1nn(Cc2ccccc2)c(Cl)c1C(=O)NC1CCCCCC1 [MMV063404] | 86.21% | 79.51% | – | – | –
26 | COc1cccc(OCC(=O)c2ccc(Br)cc2)c1 [MMV676379] | 81.42% | 79.42% | – | – | –
27 | Cc1cc(OCC(=O)Nc2ccc(C(C)C)cc2)n(C)c(=O)c1C#N [MMV1198433] | 82.52% | 91.16% | – | – | –
28 | Cc1cccc(NC(=O)c2cc(S(=O)(=O)N(C)c3ccc(F)cc3)ccc2Cl)n1 [MMV676528] | 77.13% | 57.74% | – | – | –
29 | Cc1ccc(-c2nc(CN(Cc3ccccn3)C(C)C)cs2)o1 [MMV1088520] | 70.72% | -3.27% | – | – | –
30 | Cc1cc(Nc2ccc(C(F)(F)F)cc2)n2ccnc2n1 [MMV011229] | 102.18% | 84.66% | – | – | –
31 | Clc1cccc(C(c2ccc(CN3CCNCC3)cc2)n2ccnc2)c1 (stereo not shown) [MMV663250] | 96.52% | 69.77% | – | – | –
32 | c1ccc(-c2nc(NC3CCCCC3)cc(C3CC3)n2)nc1 [MMV021013] | 11.73% | 1.47% | – | – | –
33 | COc1ccc2nc(C)cc(OCC(=O)NCc3ccccc3)c2c1 [MMV687189] | 92.36% | 81.16% | – | – | –
34 | O=C(Nc1cccnc1)c1c(O)c2cccc3c2n(c1=O)CC3 [MMV676395] | 63.89% | 0.76% | – | – | –
35 | Cc1ccc2c(c1C)NC(=O)C21NN=C(c2ccccc2)S1 (stereo not shown) [MMV019189] | -1.73% | -1.42% | 6.49 | – | –
36 | CCOc1ccc(-c2nc(NC(=O)CS(=O)(=O)c3ccccc3)sc2C)cc1 [MMV007638] | 57.66% | 52.58% | – | – | –
37 | Cc1cc(C)c2cc(C(=O)NC3CCCCCCC3)[nH]c2c1 [MMV687146] | 98.04% | 84.77% | – | – | –
38 | O=C(Nc1ccccc1-c1nc2c(C(=O)O)cccc2o1)c1ccccc1 [MMV676162] | 7.36% | -0.97% | 6.02 | – | –
39 | CC(C)C(NC(=O)Cc1cccc2ccccc12)C(=O)Nc1cccc(C#N)c1 (stereo not shown) [MMV020591] | 87.56% | 94.51% | – | – | –
40 | CC(=O)N(CCN(C(=O)c1ccc(F)cc1)c1ccccc1)c1ccccc1 [MMV676064] | 105.34% | 123.90% | – | – | –

Row | Compound | Relative Bioluminescence (%) (2 µM compound) | Relative Bioluminescence (%) (10 µM compound) | pEC50 | viability at 2 µM (2 µM compound) | viability at 10 µM (10 µM compound)
41 | Cc1ncc(-c2ccnc(Nc3ccc(S(C)(=O)=O)cc3)n2)n1C(C)C [MMV676604] | 81.35% | 33.57% | – | – | –
42 | CCN(CC)CCCCCCNc1cc(OC)cc2c(C)ccnc12 [MMV000063, Sitamaquine, reference compound] | – | – | – | 69.6% | 73.6%
43 | COc1cc(-c2cc(-c3ccc(S(C)(=O)=O)cc3)cnc2N)ccc1O [MMV010576] | 44.69% | 21.84% | – | – | –
44 | CCCCc1ccc(NC(=O)Nc2ccc(O[C@H]3CCCC[C@@H]3N(C)c3ccccc3)c(F)c2)cc1 [MMV676063] | 99.42% | 66.65% | – | – | –
45 | O=C(COc1cccc(F)c1)Nc1nc(-c2ccccn2)cs1 [MMV676409] | 37.25% | 12.84% | – | – | –
46 | O=C1O[C@@H](CO)CN1c1cc(F)c(C2=CCN(Cc3ccccc3)CC2)c(F)c1 [MMV687729] | 76.47% | 62.67% | – | – | –
47 | CC(=O)NC[C@H]1CN(c2ccc(N3CCOCC3)c(F)c2)C(=O)O1 [MMV687803, Linezolid, reference compound] | – | – | – | 76.5% | 111%
48 | COc1cccc(CC(=O)N2CCC(n3c(C)nc4ccc(F)cc43)CC2)c1 [MMV020081] | 98.78% | 73.47% | – | – | –
49 | Nc1ncnc2c1ncn2[C@@H]1O[C@H](COS(=O)(=O)NC(=O)c2ccccc2O)[C@@H](O)[C@H]1O [MMV687700] | 67.55% | 61.64% | – | – | –
50 | O=C(C1CCN(c2cc(-n3cccc3)ncn2)CC1)N1CCc2ccccc2C1 [MMV687172] | 73.27% | 54.36% | – | – | –
51 | C[C@H]1COC2(CCN(c3nc(=O)c4cc(C(F)(F)F)cc([N+](=O)[O-])c4s3)CC2)O1 [MMV676603] | 83.14% | 75.26% | – | – | –
52 | Cc1nn(C)cc1C(C)Nc1nncc(-c2ccc(C(F)(F)F)cc2)n1 (stereo not shown) [MMV019993] | 96.83% | 70.73% | – | – | –
53 | CCc1nc2ccccc2n1CC(O)COc1cc(C)ccc1Cl (stereo not shown) [MMV676449] | 92.26% | 88.05% | – | – | –
54 | CC(C)C(Oc1cccc2ccccc12)C(=O)O (stereo not shown) [MMV676191] | 107.96% | 94.76% | – | – | –
55 | OC[C@H]1O[C@@H](n2c3ccc(Cl)cc3c3c(-c4cc5ccccc5o4)ncnc32)C(O)[C@H]1O (stereo partly shown) [MMV688921] | 84.76% | 105.56% | – | – | –
56 | O=C(C1CCCCC1)N1CC(=O)N2CCc3ccccc3C2C1 (stereo not shown) [MMV002529, Praziquantel, reference compound] | – | – | – | 64.8% | 93.8%
57 | Cc1ccc(NC(=O)c2cc(S(=O)(=O)NC(C)(C)C)ccc2C)nc1 [MMV020289] | 103.50% | 71.21% | – | – | –
58 | Cc1nnc(NC(=O)c2cn(-c3ccccc3)nc2-c2ccccc2C)o1 [MMV020320] | 47.21% | 0.21% | – | – | –
59 | CC(C)(C)n1nc(Cc2ccc(F)c(Cl)c2)c2c(N)ncnc21 [MMV688852] | 73.28% | 34.77% | – | – | –
